# Test results: US10172355B2, “Safened herbicidal compositions including 4-amino-3-chloro-5-fluoro-6-(4-chloro-2-fluoro-3-methoxyphenyl)pyridine-2-carboxylic acid or a derivative thereof for use in rice” (Dow AgroSciences LLC, priority 2012, dated 2019)
# Assays:
# Format in all cases: in vivo
# ORYSA=Orysa sativa, Rice [1] = assay: Postemergence foliar-applied herbicides and safeners in direct-seeded rice, visual injury; conditions: foliar; for Visual Injury (%) - 21 DAA ORYSA-‘Clearfield 171’ Obs / Visual Injury (%) - 21 DAA ORYSA-‘Neptune’ Obs / Visual Injury (%) - 21 DAA ORYSA-‘Wells’ Obs: Tables 1,2,7,8
# Source text: (§1) Seeds or nutlets of the desired test plant species were planted in a soil matrix prepared by mixing a loam or sandy loam soil (e.g., 28.6 percent silt, 18.8 percent clay, and 52.6 percent sand, with a pH of about 5.8 and an organic matter content of about 1.8 percent) and calcareous grit in an 80 to 20 ratio. The soil matrix was contained in plastic pots with a surface area of 84.6 square centimeters (cm^2). When required to ensure good germination and healthy plants, a fungicide treatment and/or other chemical or physical treatment was applied. The plants were grown for 8-22 days in a greenhouse with an approximate 14 hr photoperiod which was maintained at about 29° C. during the day and 26° C. during the night. Nutrients (Peters Excel 15-5-15 5-Ca 2-Mg and iron chelate) were applied in the irrigation solution as needed and water was added on a regular basis. Supplemental lighting was provided with overhead metal halide 1000-Watt lamps as necessary. The plants were employed for testing when they reached the second or third true leaf stage.
# (§2) Treatments consisted of the acid or esters of 4-amino-3-chloro-5-fluoro-6-(4-chloro-2-fluoro-3-methoxy-phenyl)pyridine-2-carboxylic acid (compound A) and various safener components alone and in combination. Forms of compound A were applied on an acid equivalent basis. Safener components were applied on an active ingredient or acid equivalent basis depending on the compound.
# (§3) Treatment requirements were calculated based upon the rates being tested, the concentration of active ingredient or acid equivalent in the formulation, and a 12 mL application volume at a rate of 187 L/ha.
# (§4) For treatments comprised of formulated compounds, measured amounts of compounds were placed individually in 25 mL glass vials and diluted in a volume of 1.25% (v/v) Agri-dex crop oil concentrated to obtain 12× stock solutions. […] Application solutions were prepared by adding an appropriate amount of each stock solution (e.g., 1 mL) and diluted to the appropriate final concentrations with the addition of 10 mL of an aqueous mixture of 1.25% (v/v) Agri-dex crop oil concentrate so that the final spray solutions contained 1.25% (v/v) Agri-dex crop oil concentrate.
# (§5) For treatments comprised of technical compounds, weighed amounts were placed individually in 25 mL glass vials and dissolved in a volume of 97:3 v/v acetone/DMSO to obtain 12× stock solutions. […] Application solutions were prepared by adding an appropriate amount of each stock solution (e.g., 1 mL) and diluted to the appropriate final concentrations with the addition of 10 mL of an aqueous mixture of 1.5% (v/v) Agri-dex crop oil concentrate so that the final spray solutions contained 1.25% (v/v) Agri-dex crop oil concentrate. When technical materials were used, the concentrated stock solutions were added to the spray solutions so that the final acetone and DMSO concentrations of the application solutions were […], respectively.
# (§6) For treatments comprised of formulated and technical compounds, weighed amounts of the technical materials were placed individually in 25 mL glass vials and dissolved in a volume of 97:3 v/v acetone/DMSO to obtain 12× stock solutions, and measured amounts of the formulated compounds were placed individually in 25 mL glass vials and diluted in a volume of 1.5% (v/v) Agri-dex crop oil concentrate or water to obtain 12× stock solutions. […] Application solutions were prepared by adding an appropriate amount of each stock solution (e.g., 1 mL) and diluted to the appropriate final concentrations with the addition of an appropriate amount of an aqueous mixture of 1.5% (v/v) Agri-dex crop oil concentrate so that the final spray solutions contained 1.25% (v/v) Agri-dex crop oil concentrate. When required, additional water and/or 97:3 v/v acetone/DMSO was added to individual application solutions so that the final acetone and DMSO concentrations of the application solutions being compared were 8.1% and 0.25%, respectively. […]
# ORYSA=Orysa sativa, Rice [2] = assay: In-water applied herbicides and safeners in transplanted paddy rice, visual injury; conditions: in-water
# Protocol: Weed seeds or nutlets of the desired test plant species were planted in puddled soil (mud) prepared by mixing a shredded, non-sterilized mineral soil (50.5 percent silt, 25.5 percent clay, and 24 percent sand, with a pH of about 7.6 and an organic matter content of about 2.9 percent) and water at a 1:1 volumetric ratio. The prepared mud was dispensed in 365 mL aliquots into 16-ounce (oz.) non-perforated plastic pots with a surface area of 86.59 square centimeters (cm^2) leaving a headspace of 3 centimeters (cm) in each pot. Rice seeds were planted in Sun Gro MetroMix® 306 planting mixture, which typically has a pH of 6.0 to 6.8 and an organic matter content of about 30 percent, in plastic plug trays. Seedlings at the second or third leaf stage of growth were transplanted into 860 mL of mud contained in 32-oz. non-perforated plastic pots with a surface area of 86.59 cm^2 4 days prior to herbicide application. The paddy was created by filling the headspace of the pots with 2.5 to 3 cm of water. When required to ensure good germination and healthy plants, a fungicide treatment and/or other chemical or physical treatment was applied. The plants were grown for 4-22 days in a greenhouse with an approximate 14 h photoperiod which was maintained at about 29′C during the day and about 26° C. during the night. Nutrients were added as Osmocote® (17:6:10, N:P:K+minor nutrients) at 2 g per 16-oz. pot and 4 g per 32-oz. pot. Water was added on a regular basis to maintain the paddy flood, and supplemental lighting was provided with overhead metal halide 1000-Watt lamps as necessary. The plants were employed for testing when they reached the second or third true leaf stage.
# Treatments consisted of the acid or esters of 4-amino-3-chloro-5-fluoro-6-(4-chloro-2-fluoro-3-methoxy-phenyl)pyridine-2-carboxylic acid (compound A) and various safeners alone and in combination. Forms of compound A were applied on an acid equivalent basis. Safener components were applied on an active ingredient or acid equivalent basis depending on the compound.
# Treatment requirements for each compound or herbicidal component were calculated based upon the rates being tested, the concentration of active ingredient or acid equivalent in the formulation, an application volume of 2 mL per component per pot, and an application area of 86.59 cm^2 per pot.
# For formulated compounds, a measured amount was placed in an individual 100 or 200 mL glass vial and was dissolved in a volume of 1.25% (v/v) Agri-Dex® crop oil concentrate to obtain application solutions.
# For technical grade compounds, a weighed amount can be placed in an individual 100 to 200 mL glass vial and dissolved in a volume of acetone to obtain concentrated stock solutions. […] The concentrated stock solutions obtained can be diluted with an equivalent volume of an aqueous mixture containing 2.5% (v/v) crop oil concentrate so that the final application solutions contain 1.25% (v/v) crop oil concentrate.
# Applications were made by injecting with a pipetter appropriate amounts of the application solutions, individually and sequentially, into the aqueous layer of the paddy. Control plants were treated in the same manner with the solvent blank. Applications were made so that all treated plant material received the same concentrations of acetone and crop oil concentrate.
# The treated plants and control plants were placed in a greenhouse as described above and water was added as needed to maintain a paddy flood. After approximately 3 weeks the condition of the test plants as compared with that of the untreated plants was determined visually and scored on a scale of 0 to 100 percent where 0 corresponds to no injury or growth inhibition and 100 corresponds to complete kill.
# Colby's equation was used to determine the herbicidal effects expected from the mixtures (Colby, S. R. 1967. Calculation of the synergistic and antagonistic response of herbicide combinations. Weeds 15:20-22.). […]
# [3] = test system: ECHCG=Echinochloa crus-galli; assay: Postemergence foliar-applied herbicides and safeners, visual injury of weed; conditions: Echinochloa crus-galli, foliar, 480 h, read-out: Visual Injury (%) - 20 DAA ECHCG Obs, foliar; Compound A form 140 g ae/ha alone; trial of Tables 5,9,11,13
# Source text: as §1, §2, §3, §4, §5, §6
SMILES,"Visual Injury (%) - 21 DAA ORYSA-‘Clearfield 171’ Obs (ORYSA=Orysa sativa, Rice [1]; safener 70 g ai/ha alone) [%]","Visual Injury (%) - 21 DAA ORYSA-‘Neptune’ Obs (ORYSA=Orysa sativa, Rice [1]; safener 70 g ai/ha alone) [%]","Visual Injury (%) - 21 DAA ORYSA-‘Wells’ Obs (ORYSA=Orysa sativa, Rice [1]; safener 70 g ai/ha alone) [%]","Visual Injury (%) - 21 DAA ORYSA-‘Clearfield 171’ Obs (ORYSA=Orysa sativa, Rice [1]; safener 140 g ai/ha alone) [%]","Visual Injury (%) - 21 DAA ORYSA-‘Neptune’ Obs (ORYSA=Orysa sativa, Rice [1]; safener 140 g ai/ha alone) [%]","Visual Injury (%) - 21 DAA ORYSA-‘Wells’ Obs (ORYSA=Orysa sativa, Rice [1]; safener 140 g ai/ha alone) [%]","Visual Injury (%) - 21 DAA ORYSA-‘Neptune’ Obs (ORYSA=Orysa sativa, Rice [1]; safener 280 g ai/ha alone) [%]","Visual Injury (%) - 21 DAA ORYSA-‘Wells’ Obs (ORYSA=Orysa sativa, Rice [1]; safener 280 g ai/ha alone) [%]","Visual Injury (%) - 21 DAA ORYSA - ‘M202’ Obs (ORYSA=Orysa sativa, Rice [2]; safener 140 g ai/ha alone) [%]","Visual Injury (%) - 21 DAA ORYSA - ‘M202’ Obs (ORYSA=Orysa sativa, Rice [2]; safener 280 g ai/ha alone) [%]","Visual Injury (%) - 21 DAA ORYSA - ‘M202’ Obs (ORYSA=Orysa sativa, Rice [2]; safener 560 g ai/ha alone) [%]","Visual crop injury (%) at 140 g/ha (ORYSA=Orysa sativa, Rice [1]; Oryza sativa, 480 h, read-out: Visual Injury (%) - 20 DAA ORYSA-‘Clearfield 171’ Obs, foliar, Compound A form 140 g ae/ha alone, trial of Tables 5,9,11,13) [%]",pest or weed control at 140 g/ha [3] [%],"Visual Injury (%) - 21 DAA ORYSA - ‘M202’ Obs (ORYSA=Orysa sativa, Rice [2]; Compound A form 140 g ae/ha alone) [%]"
"CCOC(=O)C1=NOC(c2ccccc2)(c2ccccc2)C1 [Isoxadifen-ethyl, ethyl 4,5-dihydro-5,5-diphenyl-3-isoxazole-carboxylate]",0,0,0,0,0,0,0,0,0,0,0,,,
COC(=O)c1nc(-c2ccc(Cl)c(OC)c2F)c(F)c(N)c1Cl [Methyl],,,,,,,,,,,,12,98,17.5
